# From patent EP2929883A1, “Pyrazole derivatives as dihydroorotate dehydrogenase (DHODH) inhibitors” (INSTITUT PASTEUR, priority 2014, dated 2015)
# System: measles virus
# Assay: microbe, parasite or virus in culture
# Conditions: Measles morbillivirus, 24 h
row,SMILES,MIC50 [µM]
1,"Cc1c(Oc2c(F)cccc2F)c(OC(C)C)nn1-c1ncc(C2CC2)cc1O [example 187, 5-cyclopropyl-2-(4-(2,6-difluorophenoxy)-3-isopropoxy-5-methyl-1H-pyrazol-1-yl)pyridin-3-ol]",0.0005 to 0.05
2,"CC(C)Oc1nn(-c2ncc(C3CC3)cc2C#N)cc1Oc1ccccc1 [example 75, 5-cyclopropyl-2-(3-isopropoxy-4-phenoxy-1H-pyrazol-1-yl)nicotinonitrile]",> 5
3,"COc1cccc(Cc2cc(OC)nn2-c2ccccn2)c1 [example 148, 2-(3-methoxy-5-(3-methoxybenzyl)-1H-pyrazol-1-yl)pyridine]",> 5
4,"CCOc1cc(-c2ccc(OC)cc2)n(-c2ccccn2)n1 [example 145, 2-(3-ethoxy-5-(4-methoxyphenyl)-1H-pyrazol-1-yl)pyridine]",> 5
5,"CCOc1nn(-c2ncc(CC)cn2)c(C)c1Oc1cccc(C(F)(F)F)c1 [example 57, 2-(3-ethoxy-5-methyl-4-(3-(trifluoromethyl)phenoxy)-1H-pyrazol-1-yl)-5-ethylpyrimidine]",0.05 to 0.5
6,"Cc1c(Oc2c(F)cccc2F)c(OC(C)C)nn1-c1ncc(Br)cc1F [example 86, 5-bromo-2-(4-(2,6-difluorophenoxy)-3-isopropoxy-5-methyl-1H-pyrazol-1-yl)-3-fluoropyridine]",0.05 to 0.5
7,"Cc1cnc(-n2nc(OC(C)C)c(Oc3c(F)cccc3F)c2C)nc1 [example 47, 2-(4-(2,6-difluorophenoxy)-3-isopropoxy-5-methyl-1H-pyrazol-1-yl)-5-methylpyrimidine]",0.0005 to 0.05
8,"Cc1c(Oc2c(F)cccc2F)c(OC(C)C)nn1-c1ccc(Cl)nn1 [example 15, 3-chloro-6-(4-(2,6-difluorophenoxy)-3-isopropoxy-5-methyl-1H-pyrazol-1-yl)pyridazine]",0.05 to 0.5
9,"CC(C)Oc1nn(-c2ncc(C3CC3)cn2)cc1Oc1ccccc1 [example 100, 5-cyclopropyl-2-(3-isopropoxy-4-phenoxy-1H-pyrazol-1-yl)pyrimidine]",0.05 to 0.5
10,"COc1nn(-c2ncc(C3CC3)cn2)c(C)c1Cc1ccccc1 [example 138, 2-(4-benzyl-3-methoxy-5-methyl-1H-pyrazol-1-yl)-5-cyclopropylpyrimidine]",0.05 to 0.5
11,"Cc1c(Cc2ccccc2)c(OC(C)C)nn1-c1ncc(C2CC2)cn1 [example 21, 2-(4-benzyl-3-isopropoxy-5-methyl-1H-pyrazol-1-yl)-5-cyclopropylpyrimidine]",0.0005 to 0.05
12,"Cc1c(Oc2c(O)cccc2F)c(OC(C)C)nn1-c1ncc(C2CC2)cc1O [example 188, 5-cyclopropyl-2-(4-(2-fluoro-6-hydroxyphenoxy)-3-isopropoxy-5-methyl-1H-pyrazol-1-yl)pyridin-3-ol]",0.0005 to 0.05
13,"Cc1c(Oc2c(F)cccc2F)c(OC(C)C)nn1-c1ncc(C2CC2)cn1 [example 13, 5-cyclopropyl-2-(4-(2,6-difluorophenoxy)-3-isopropoxy-5-methyl-1H-pyrazol-1-yl)pyrimidine]",0.0005 to 0.05
14,"Cc1c(Oc2c(F)cccc2F)c(OC(C)C)nn1-c1cnc(C2CC2)nc1 [example 133, 2-cyclopropyl-5-(4-(2,6-difluorophenoxy)-3-isopropoxy-5-methyl-1H-pyrazol-1-yl)pyrimidine]",0.05 to 0.5
15,"CCOc1c(Cc2ccccc2)c(C)nn1-c1ncc(Br)cn1 [example 43, 2-(4-benzyl-5-ethoxy-3-methyl-1H-pyrazol-1-yl)-5-bromopyrimidine]",> 5
16,"Cc1c(Oc2c(F)cccc2F)c(OC(C)C)nn1-c1ccc(C(C)(F)F)cn1 [example 91, 5-(1,1-difluoroethyl)-2-(4-(2,6-difluorophenoxy)-3-isopropoxy-5-methyl-1H-pyrazol-1-yl)pyridine]",0.05 to 0.5
17,"Cc1c(Oc2c(F)cccc2F)c(OC(C)C)nn1-c1ccc(C2CC2)cn1 [example 9, 5-cyclopropyl-2-(4-(2,6-difluorophenoxy)-3-isopropoxy-5-methyl-1H-pyrazol-1-yl)pyridine]",0.0005 to 0.05
